Assays:
Assay in all cases: Test B pre-/postemergence plant response
Type in all cases: in vivo
[1] = tested on: soybean (Glycine max)
How it was run: (§1)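 Preemergence and postemergence (plants 2-18 cm, 1- to 4-leaf stage) applications used test chemicals in a non-phytotoxic solvent with surfactant. Plants were held in a greenhouse 13 to 15 days, then rated visually against controls on a 0-100 scale (0 no effect, 100 complete control).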

[2] = tested on: blackgrass (Alopecurus myosuroides); conditions: for Blackgrass plant response rating: 8 g ai/ha
How it was run: as §1

[3] = tested on: green foxtail (Setaria viridis)
How it was run: as §1

[4] = tested on: surinam grass (Brachiaria decumbens)
How it was run: as §1

[5] = tested on: common (oilseed) sunflower (Helianthus annuus); conditions: Preemergence
How it was run: as §1

[6] = tested on: morningglory (Ipomoea coccinea)
How it was run: as §1

[7] = tested on: kochia (Kochia scoparia)
How it was run: as §1

[8] = tested on: wheat (Triticum aestivum)
How it was run: as §1

[9] = tested on: large crabgrass (Digitaria sanguinalis)
How it was run: as §1

[10] = tested on: lambsquarters (Chenopodium album)
How it was run: as §1

[11] = tested on: wild oat (Avena fatua)
How it was run: as §1

[12] = tested on: common ragweed (Ambrosia elation)
How it was run: as §1

[13] = tested on: goosegrass (Eleusine indica)
How it was run: as §1

[14] = tested on: eastern black (E.B.) nightshade (Solanum ptycanthum); conditions: Preemergence
How it was run: as §1

[15] = 8 g ai/ha, postemergence, 0-100 scale
[16] = Postemergence, 16 g ai/ha, scale 0 to 100
[17] = Postemergence, 31 g ai/ha, scale 0 to 100
[18] = Postemergence, 62 g ai/ha, scale 0 to 100, 0 no effect, 100 complete control
[19] = Preemergence, 31 g ai/ha, scale 0 to 100 (0 no effect, 100 complete control)
[20] = Preemergence, 62 g ai/ha, scale 0 to 100
[21] = Preemergence, 8 g ai/ha, scale 0 to 100
[22] = Preemergence, 16 g ai/ha, scale 0 to 100
[23] = Preemergence, 31 g ai/ha, 0 to 100 scale, 0 no effect, 100 complete control
[24] = Preemergence, 62 g ai/ha, 0 to 100 scale, 0 no effect, 100 complete control
[25] = 31 g ai/ha, scale 0 to 100 (0 no effect, 100 complete control)

Cc1cc(-c2ccc(Cl)cc2)nn1-c1c(OC(=O)Oc2ccccc2)cnn(C)c1=O [Compound 54]
Soybean plant response rating [1, 15]: 0
Plant response rating, Soybean [1, 16]: 0
Plant response rating, Soybean [1, 17]: 0
Plant response rating, Soybean [1, 18]: 0
Plant response rating, Soybean [1, 19]: 0
Plant response rating, Soybean [1, 20]: 0
Soybean plant response rating [1, 21]: 0
Soybean plant response rating [1, 22]: 0
Blackgrass plant response rating ([2]; postemergence, 0-100 scale): 45
Plant response rating, Blackgrass [2, 16]: 45
Plant response rating, Blackgrass [2, 17]: 70
Plant response rating, Blackgrass [2, 18]: 70
Plant response rating, Blackgrass ([2]; Preemergence, 16 g ai/ha, scale 0 to 100 (0 no effect, 100 complete control)): 90
Plant response rating, Blackgrass [2, 23]: 90
Plant response rating, Blackgrass [2, 20]: 90
Blackgrass plant response rating ([2]; Preemergence, scale 0 to 100): 60
Foxtail, Green plant response rating [3, 15]: 70
Plant response rating, Foxtail, Green [3, 16]: 95
Plant response rating, Foxtail, Green [3, 17]: 95
Plant response rating, Foxtail, Green [3, 18]: 100
Plant response rating, Foxtail, Green [3, 23]: 100
Plant response rating, Foxtail, Green [3, 20]: 100
Foxtail, Green plant response rating [3, 21]: 55
Foxtail, Green plant response rating [3, 22]: 95
Surinam Grass plant response rating [4, 15]: 50
Plant response rating, Surinam Grass [4, 16]: 95
Plant response rating, Surinam Grass [4, 17]: 98
Plant response rating, Surinam Grass [4, 18]: 100
Plant response rating, Surinam Grass [4, 19]: 55
Plant response rating, Surinam Grass [4, 24]: 85
Surinam Grass plant response rating [4, 21]: 0
Surinam Grass plant response rating [4, 22]: 0
Plant response rating, Sunflower [5, 25]: 0
Plant response rating, Sunflower ([5]; 62 g ai/ha, scale 0 to 100): 0
Sunflower plant response rating ([5]; 8 g ai/ha, scale 0 to 100): 0
Sunflower plant response rating ([5]; 16 g ai/ha, scale 0 to 100): 0
Morningglory plant response rating [6, 15]: 0
Plant response rating, Morningglory [6, 16]: 0
Plant response rating, Morningglory [6, 17]: 0
Plant response rating, Morningglory [6, 18]: 0
Plant response rating, Morningglory [6, 19]: 0
Plant response rating, Morningglory [6, 20]: 0
Morningglory plant response rating [6, 21]: 0
Morningglory plant response rating [6, 22]: 0
Kochia plant response rating [7, 15]: 0
Plant response rating, Kochia [7, 16]: 0
Plant response rating, Kochia [7, 17]: 0
Plant response rating, Kochia [7, 18]: 0
Plant response rating, Kochia [7, 23]: 0
Wheat plant response rating [8, 15]: 0
Plant response rating, Wheat [8, 16]: 30
Plant response rating, Wheat [8, 17]: 60
Plant response rating, Wheat [8, 18]: 60
Plant response rating, Wheat [8, 19]: 10
Plant response rating, Wheat [8, 24]: 50
Wheat plant response rating [8, 22]: 0
Crabgrass, Large plant response rating [9, 15]: 65
Plant response rating, Crabgrass, Large [9, 16]: 85
Plant response rating, Crabgrass, Large [9, 17]: 98
Plant response rating, Crabgrass, Large [9, 18]: 98
Plant response rating, Crabgrass, Large [9, 23]: 0
Plant response rating, Crabgrass, Large [9, 20]: 0
Crabgrass, Large plant response rating [9, 21]: 0
Crabgrass, Large plant response rating [9, 22]: 0
Lambsquarters plant response rating [10, 15]: 0
Plant response rating, Lambsquarters [10, 16]: 0
Plant response rating, Lambsquarters [10, 17]: 0
Plant response rating, Lambsquarters [10, 18]: 0
Plant response rating, Lambsquarters [10, 23]: 0
Plant response rating, Lambsquarters [10, 20]: 0
Lambsquarters plant response rating [10, 21]: 0
Lambsquarters plant response rating [10, 22]: 0
Oat, Wild plant response rating [11, 15]: 85
Plant response rating, Oat, Wild [11, 16]: 90
Plant response rating, Oat, Wild [11, 17]: 98
Plant response rating, Oat, Wild [11, 18]: 98
Plant response rating, Oat, Wild [11, 19]: 75
Plant response rating, Oat, Wild [11, 20]: 95
Oat, Wild plant response rating [11, 21]: 40
Oat, Wild plant response rating [11, 22]: 70
Ragweed plant response rating [12, 15]: 0
Plant response rating, Ragweed [12, 16]: 0
Plant response rating, Ragweed [12, 17]: 0
Plant response rating, Ragweed [12, 18]: 0
Plant response rating, Ragweed [12, 19]: 0
Plant response rating, Ragweed [12, 20]: 0
Ragweed plant response rating [12, 21]: 0
Ragweed plant response rating [12, 22]: 0
Goosegrass plant response rating [13, 15]: 55
Plant response rating, Goosegrass [13, 16]: 65
Plant response rating, Goosegrass [13, 17]: 70
Plant response rating, Goosegrass [13, 18]: 98
Plant response rating, Goosegrass [13, 23]: 0
Plant response rating, Goosegrass [13, 20]: 0
Goosegrass plant response rating [13, 21]: 0
Goosegrass plant response rating [13, 22]: 0
Plant response rating, Nightshade, E. B. [14, 25]: 0
Plant response rating, Nightshade, E. B. ([14]; 62 g ai/ha, scale 0 to 100): 0
Nightshade, E. B. plant response rating ([14]; 8 g ai/ha, scale 0 to 100): 0
Nightshade, E. B. plant response rating ([14]; 16 g ai/ha, scale 0 to 100): 0

From US20100267561A1, “HERBICIDAL PYRIDAZINONE DERIVATIVES” (priority 2007, published 2010)
